From publication PMC9120017, “Inhibition mechanism of the chloride channel TMEM16A by the pore blocker 1PBC” (Nature Communications, 2022)
Where two headings read alike, the source gives them in different places.

Biological target: T1, mouse TMEM16A mutant I636A (Mus musculus, UniProt Q8BHY3, I636A)
T1 construct: expressed in transfected cells; host or cells: HEK293T
T1 sequence (Q8BHY3 1-960 I636A): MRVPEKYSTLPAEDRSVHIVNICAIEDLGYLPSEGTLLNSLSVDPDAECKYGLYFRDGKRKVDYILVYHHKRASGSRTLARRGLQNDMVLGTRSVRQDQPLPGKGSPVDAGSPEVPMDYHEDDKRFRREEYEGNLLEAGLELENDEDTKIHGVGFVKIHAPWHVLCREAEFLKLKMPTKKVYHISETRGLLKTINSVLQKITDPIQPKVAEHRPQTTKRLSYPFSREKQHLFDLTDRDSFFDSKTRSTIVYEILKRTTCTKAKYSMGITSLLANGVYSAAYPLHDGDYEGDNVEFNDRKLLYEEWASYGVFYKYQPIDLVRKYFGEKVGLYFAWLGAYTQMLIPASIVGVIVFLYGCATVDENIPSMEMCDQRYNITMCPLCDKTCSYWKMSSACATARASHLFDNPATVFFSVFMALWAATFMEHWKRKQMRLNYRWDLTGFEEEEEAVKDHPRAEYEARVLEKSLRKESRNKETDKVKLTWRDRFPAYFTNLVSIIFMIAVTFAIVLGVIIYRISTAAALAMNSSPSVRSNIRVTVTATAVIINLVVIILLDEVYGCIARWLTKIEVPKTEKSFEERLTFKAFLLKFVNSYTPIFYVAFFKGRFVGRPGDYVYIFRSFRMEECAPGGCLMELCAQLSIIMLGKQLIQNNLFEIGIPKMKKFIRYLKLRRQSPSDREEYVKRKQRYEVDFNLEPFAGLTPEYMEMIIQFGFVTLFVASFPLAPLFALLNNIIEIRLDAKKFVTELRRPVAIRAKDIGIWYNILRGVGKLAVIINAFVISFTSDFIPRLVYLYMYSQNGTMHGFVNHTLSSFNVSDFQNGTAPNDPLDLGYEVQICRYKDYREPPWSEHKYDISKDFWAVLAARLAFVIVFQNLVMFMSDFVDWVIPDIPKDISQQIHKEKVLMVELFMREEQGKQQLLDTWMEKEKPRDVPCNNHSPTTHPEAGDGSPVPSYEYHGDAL
Assay: Inside-out patch recording of 1PBC block, mutant I636A
Type: cell-based
Conditions: for remaining activity at 3 µM: 1PBC conc 3; for remaining activity at 3 µM / remaining activity at 10 µM / remaining activity at 30 µM / remaining activity at 100 µM: read-out: relative current in 1PBC (avr); for remaining activity at 10 µM: 1PBC conc 10; for remaining activity at 30 µM: 1PBC conc 30; for remaining activity at 100 µM: 1PBC conc 100
Method: HEK293T cells (ATCC CRL-1573) were maintained in Dulbecco’s modified Eagle’s medium (DMEM; Sigma-Aldrich) supplemented with 10 U ml^−1 penicillin, 0.1 mg ml^−1 streptomycin (Sigma-Aldrich), 2 mM L-glutamine (Sigma-Aldrich), and 10% FBS (Sigma-Aldrich) in a humidified atmosphere containing 5% CO2 at 37 °C. HEK293S GnTI^− cells (ATCC CRL-3022) were maintained in HyClone HyCell TransFx-H medium (GE Healthcare) supplemented with 10 U ml^−1 penicillin, 0.1 mg ml^−1 streptomycin, 4 mM L-glutamine, 0.15% poloxamer 188 (Sigma-Aldrich), and 1% FBS in an atmosphere containing 5% CO2 at 185 rpm at 37 °C. The ac splice variant of mouse TMEM16A (UniProt ID: Q8BHY3), mouse TMEM16B (UniProt ID: Q8CFW1), or mouse TMEM16F (UniProt ID: Q6P9J9) bearing a 3C cleavage site, a Venus YFP, a Myc tag, and a Streptavidin-binding peptide (SBP) downstream of the open reading frame in a modified pcDNA3.1 vector (Invitrogen) were used as described previously[21],[31]. Mutations were introduced using a modified QuikChange method[58] and were verified by sequencing.
HEK293T cells were transfected with 3–4 μg DNA per 6 cm Petri dish using the calcium phosphate co-precipitation method and were used within 24–96 h after transfection. Recordings were performed on inside-out patches excised from HEK293T cells expressing the construct of interest. Patch pipettes were pulled from borosilicate glass capillaries (O.D. 1.5 mm, I.D. 0.86 mm, Sutter Instrument) and were fire-polished with a microforge (Narishige) before use. Pipette resistance was typically 3–8 MΩ when filled with the recording solutions detailed below. Seal resistance was typically 4 GΩ or higher. Voltage-clamp recordings were made using Axopatch 200B, Digidata 1550, and Clampex 10.7 (Molecular Devices). Analog signals were filtered with the in-built 4-pole Bessel filter at 10 kHz and were digitized at 20 kHz. Solution exchange was achieved using a gravity-fed system through a theta glass pipette mounted on an ultra-fast piezo-driven stepper (Siskiyou). […] All recordings were performed at 20 °C.
A symmetrical ionic condition was used throughout. Stock solution with Ca^2+-EGTA contained 150 mM NaCl, 5.99 mM Ca(OH)2, 5 mM EGTA, and 10 mM HEPES at pH 7.40. Stock solution with EGTA contained 150 mM NaCl, 5 mM EGTA, and 10 mM HEPES at pH 7.40. Free Ca^2+ concentrations were adjusted by mixing the stock solutions at the required ratios calculated using the WEBMAXC program (http://web.stanford.edu/~cpatton/webmaxcS.htm). Patch pipettes were filled with the stock solution with Ca^2+-EGTA, which has a free Ca^2+ concentration of 1 mM. 1PBC (ChemBridge) stock was reconstituted in anhydrous DMSO (Sigma-Aldrich) at 100 mM and stored at −20 °C. Working solutions with 1PBC were prepared by serial dilution. Unless otherwise stated, experiments were performed at a saturating Ca^2+ concentration as shown in Supplementary Table 1 and the primary data were corrected for current rundown as described previously[21],[25].
Concentration-response relations, obtained from the ratio of the I-V plots before and after the application of the blocker, were fitted to the Hill equation,1 I/Imax=1/1+IC50/[blocker]^h where I/Imax is the normalized current responses, IC50 defines the concentration at which inhibition is at its half-maximum, and h is the Hill coefficient.

N#Cc1c(C(F)(F)F)cc(O)n2c1nc1ccccc12 [1PBC]
IC50 (0 mV, 15 µM Ca2+): 6.73 µM
remaining activity at 3 µM (0 mV): 68.4%
remaining activity at 10 µM (0 mV): 39.2%
remaining activity at 30 µM (0 mV): 19.6%
remaining activity at 100 µM (0 mV): 9.71%
IC50 (20 mV, 15 µM Ca2+): 5.47 µM
remaining activity at 3 µM (20 mV): 63.6%
remaining activity at 10 µM (20 mV): 34.4%
remaining activity at 30 µM (20 mV): 17.1%
remaining activity at 100 µM (20 mV): 9.23%
IC50 (40 mV, 15 µM Ca2+): 4.65 µM
remaining activity at 3 µM (40 mV): 60.6%
remaining activity at 10 µM (40 mV): 30.8%
remaining activity at 30 µM (40 mV): 15.1%
remaining activity at 100 µM (40 mV): 5.83%
IC50 (60 mV, 15 µM Ca2+): 4.03 µM
remaining activity at 3 µM (60 mV): 56.6%
remaining activity at 10 µM (60 mV): 27.9%
remaining activity at 30 µM (60 mV): 14.3%
remaining activity at 100 µM (60 mV): 6.18%
log-fold IC50 (change of mutant vs WT) (80 mV): 0.2863
IC50 (80 mV, 15 µM Ca2+): 3.83 µM
remaining activity at 3 µM (80 mV): 55.6%
remaining activity at 10 µM (80 mV): 26.8%
remaining activity at 30 µM (80 mV): 13.6%
remaining activity at 100 µM (80 mV): 5.37%
IC50 (100 mV, 15 µM Ca2+): 3.89 µM
remaining activity at 3 µM (100 mV): 55.3%
remaining activity at 10 µM (100 mV): 27%
remaining activity at 30 µM (100 mV): 15.6%
remaining activity at 100 µM (100 mV): 5.12%
IC50 (120 mV, 15 µM Ca2+): 4.05 µM
remaining activity at 3 µM (120 mV): 56.6%
remaining activity at 10 µM (120 mV): 27.6%
remaining activity at 30 µM (120 mV): 16%
remaining activity at 100 µM (120 mV): 4.9%
IC50 (140 mV, 15 µM Ca2+): 4.5 µM
remaining activity at 3 µM (140 mV): 58.9%
remaining activity at 10 µM (140 mV): 29.8%
remaining activity at 30 µM (140 mV): 17.2%
remaining activity at 100 µM (140 mV): 5.22%
IC50 (-20 mV, 15 µM Ca2+): 8.22 µM
remaining activity at 3 µM (-20 mV): 73.2%
remaining activity at 10 µM (-20 mV): 44.1%
remaining activity at 30 µM (-20 mV): 22.1%
remaining activity at 100 µM (-20 mV): 10.2%
IC50 (-40 mV, 15 µM Ca2+): 10.2 µM
remaining activity at 3 µM (-40 mV): 77.7%
remaining activity at 10 µM (-40 mV): 49.5%
remaining activity at 30 µM (-40 mV): 25.2%
remaining activity at 100 µM (-40 mV): 11%
IC50 (-60 mV, 15 µM Ca2+): 12.5 µM
remaining activity at 3 µM (-60 mV): 81.7%
remaining activity at 10 µM (-60 mV): 54.6%
remaining activity at 30 µM (-60 mV): 29.3%
remaining activity at 100 µM (-60 mV): 11.8%
IC50 (-80 mV, 15 µM Ca2+): 16 µM
remaining activity at 3 µM (-80 mV): 85.2%
remaining activity at 10 µM (-80 mV): 60.7%
remaining activity at 30 µM (-80 mV): 34%
remaining activity at 100 µM (-80 mV): 16.3%
IC50 (-100 mV, 15 µM Ca2+): 19.2 µM
remaining activity at 3 µM (-100 mV): 87.8%
remaining activity at 10 µM (-100 mV): 65.1%
remaining activity at 30 µM (-100 mV): 37.6%
remaining activity at 100 µM (-100 mV): 18.6%
IC50 (-120 mV, 15 µM Ca2+): 23.6 µM
remaining activity at 3 µM (-120 mV): 90.9%
remaining activity at 10 µM (-120 mV): 69.5%
remaining activity at 30 µM (-120 mV): 41.8%
remaining activity at 100 µM (-120 mV): 22.1%
IC50 (-140 mV, 15 µM Ca2+): 27.8 µM
remaining activity at 3 µM (-140 mV): 92.3%
remaining activity at 10 µM (-140 mV): 72.1%
remaining activity at 30 µM (-140 mV): 45.6%
remaining activity at 100 µM (-140 mV): 25.9%
IC50 (I636A, V 0 mV): 6.73 µM
IC50 (I636A, V 20 mV): 5.47 µM
IC50 (I636A, V 40 mV): 4.65 µM
IC50 (I636A, V 60 mV): 4.03 µM
IC50 (I636A, V 80 mV): 3.83 µM
IC50 (I636A, V 100 mV): 3.89 µM
IC50 (I636A, V 120 mV): 4.05 µM
IC50 (I636A, V 140 mV): 4.5 µM
IC50 (I636A, V -20 mV): 8.22 µM
IC50 (I636A, V -40 mV): 10.2 µM
IC50 (I636A, V -60 mV): 12.5 µM
IC50 (I636A, V -80 mV): 16 µM
IC50 (I636A, V -100 mV): 19.2 µM
IC50 (I636A, V -120 mV): 23.6 µM
IC50 (I636A, V -140 mV): 27.8 µM
